Measurements taken from patent US7041698B2, “Hepatitis C virus inhibitors” (Bristol-Myers Squibb Company, priority 2002, dated 2006).
Like-named read-outs stand apart in the source and are kept apart here.

Experiments:
[1] = tested on: HCV replicon in Huh7 cells; test: HCV replicon cell-based assay; set-up: species or system HCV strain 1B; conditions: Hepatitis C virus, Huh-7, 96 h, HCV replicon, 4 days, read-out: EC50 range
From the text: HCV Replicon Cell-based Assay
An HCV replicon whole cell system was established as described by Lohmann V, Komer F, Koch J, Herian U, Theilmann L, Bartenschlager R., Science 285(5424):110–3 (1999). This system enabled us to evaluate the effects of our HCV Protease compounds on HCV RNA replication. Briefly, using the HCV strain 1B sequence described in the Lohmann paper (Assession number:AJ238799), an HCV cDNA was generated encoding the 5′ internal ribosome entry site (IRES), the neomycin resistance gene, the EMCV (encephalomyocarditis viurs)-IRES and the HCV nonstructural proteins, NS3-NS5B, and 3′ non-translated region (NTR). In vitro transcripts of the cDNA were transfected into the human hepatoma cell line, Huh7. […] Resulting cell lines were characterized for positive and negative strand RNA production and protein production over time.
Huh7 cells, constitutively expressing the HCV replicon, were grown in Dulbecco's Modified Eagle Media (DMEM) containing 10% Fetal calf serum (FCS) and 1 mg/ml G418 (Gibco-BRL). Cells were seeded the night before (1.5×10^4 cells/well) in 96-well tissue-culture sterile plates. Compound and no compound controls were prepared in DMEM containing 4% FCS, 1:100 Penicillin/Streptomysin, 1:100 L-glutamine and 5% DMSO in the dilution plate (0.5% DMSO final concentration in the assay). Compound/DMSO mixes were added to the cells and incubated for 4 days at 37° C. After 4 days, plates were rinsed thoroughly with Phosphate-Buffered Saline (PBS) (3 times 150 μl). The cells were lysed with 25 μl of a lysis assay reagent containing the FRET peptide (RET S1, as described for the in vitro enzyme assay). The lysis assay reagent was made from 5× cell Luciferase cell culture lysis reagent (Promega #E153A) diluted to 1× with distilled water, NaCl added to 150 mM final, the FRET peptide diluted to 10 μM final from a 2 mM stock in 100% DMSO. The plate was then placed into the Cytofluor 4000 instrument which had been set to 340 nm excitation/490 emission, automatic mode for 21 cycles and the plate read in a kinetic mode. EC50 determinations were carried out as described for the IC50 determinations.
As a secondary assay, EC50 determinations from the replicon FRET assay were confirmed in a quantitative RNA assay. Cells were lyzed using the Rneasy kit (Qiagen). Purified total RNA was normalized using RiboGreen (Jones L J, Yue S T, Cheung C Y, Singer V L, Anal. Chem., 265(2):368–74 (1998)) and relative quantitation of HCV RNA expression assessed using the Taqman procedure (Kolykhalov A A, Mihalik K, Feinstone S M, Rice C M, Journal of Virology 74, 2046–2051 (2000)) and the Platinum Quantitative RT-PCR Thermoscript One-Step kit (Invitrogen cat # 11731-015). Briefly, RNA made to a volume of 5 μl (<1 ng) was added to a 20 μl Ready-Mix containing the following: 1.25× Thermoscript reaction mix (containing Magnesium Sulfate and 2-deoxynucleoside 5′-triphosphates (dNTPs)), 3 mM dNTPs, 200 nM forward primer (sequence: 5′-[…]-3′), 600 nM reverse primer (5′-[…]-3′), 100 nM probe (5′-6-FAM-[…]-BHQ-1-3′)(FAM: Fluorescein-aminohexyl amidite; BHQ: Black Hole Quencher), 1 μM Rbx reference dye (Invitrogen cat # 12223-012) and Thermoscript Plus Platinum Taq polymerase mixture. All primers were designed with ABI Prism 7700 software and obtained from Biosearch Technologies, Novato, Calif. Samples containing known concentrations of HCV RNA transcript were run as standards. Using the following cycling protocol (50° C., 30 min; 95° C., 5 min; 40 cycles of 95° C., 15 sec, 60° C., 1 min), HCV RNA expression was quantitated as described in the Perkin Elmer manual using the ABI Prism 7700 Sequence Detector.
The luciferase reporter assay was also used to confirm compound potency in the replicon. Utilization of a replicon luciferase reporter assay was first described by Krieger et al (Krieger N, Lohmann V, and Bartenschlager R, J. Virol. 75(10):4614–4624 (2001)). […]

[2] = target: T1, HCV NS3/4A protease complex (UniProt P27958, C1454S/C1711G, species not given); test: Recombinant HCV NS3/4A protease complex FRET peptide assay (strain not stated); format: biochemical
T1 construct: fused on or other part: Three-lysine solubilising tail at the C-terminus of NS4A
From the text: Recombinant HCV NS3/4A Protease Complex FRET Peptide Assay
The purpose of this in vitro assay was to measure the inhibition of HCV NS3 protease complexes, derived from the BMS, H77C or J416S strains, as described below, by compounds of the present invention. This assay provides an indication of how effective compounds of the present invention would be in inhibiting HCV proteolytic activity.
Serum from an HCV-infected patient was obtained from Dr. T. Wright, San Francisco Hospital. An engineered full-length cDNA (compliment deoxyribonucleic acid) template of the HCV genome (BMS strain) was constructed from DNA fragments obtained by reverse transcription-PCR (RT-PCR) of serum RNA (ribonucleic acid) and using primers selected on the basis of homology between other genotype 1a strains. From the determination of the entire genome sequence, a genotype 1a was assigned to the HCV isolate according to the classification of Simmonds et al. (See P Simmonds, K A Rose, S Graham, S W Chan, F McOmish, B C Dow, E A Follett, P L Yap and H Marsden, J. Clin. Microbiol., 31(6), 1493–1503 (1993)). […] The infectious clones, H77C (1a genotype) and J4L6S (1b genotype) were obtained from R. Purcell (NIH) and the sequences are published in Genbank (AAB67036, see Yanagi, M., Purcell, R. H., Emerson, S. U. and Bukh, J. Proc. Natl. Acad. Sci. U.S.A. 94(16),8738–8743 (1997); AF054247, see Yanagi, M., St Claire, M., Shapiro, M., Emerson, S. U., Purcell, R. H. and Bukh, J, Virology 244 (1), 161–172. (1998)).
The BMS, H77C and J4L6S strains were used for production of recombinant NS3/4A protease complexes. DNA encoding the recombinant HCV NS3/4A protease complex (amino acids 1027 to 1711) for these strains were manipulated as described by P. Gallinari et al. (see Gallinari P, Paolini C, Brennan D, Nardi C, Steinkuhler C, De Francesco R. Biochemistry. 38(17):5620–32, (1999)). Briefly, a three-lysine solubilizing tail was added at the 3′-end of the NS4A coding region. The cysteine in the P1 position of the NS4A-NS4B cleavage site (amino acid 1711) was changed to a glycine to avoid the proteolytic cleavage of the lysine tag. Furthermore, a cysteine to serine mutation was introduced by PCR at amino acid position 1454 to prevent the autolytic cleavage in the NS3 helicase domain. The variant DNA fragment was cloned in the pET21b bacterial expression vector (Novagen) and the NS3/4A complex was expressed in Escherichia. coli strain BL21 (DE3) (Invitrogen) following the protocol described by P. Gallinari et al. (see Gallinari P, Brennan D, Nardi C, Brunetti M, Tomei L, Steinkuhler C, De Francesco R., J. Virol. 72(8):6758–69 (1998)) with modifications. Briefly, NS3/4A expression was induced with 0.5 mM Isopropyl β-D-1-thiogalactopyranoside (IPTG) for 22 hr at 20° C. A typical fermentation (10L) yielded approximately 80 g of wet cell paste. The cells were resuspended in lysis buffer (10 mL/g) consisting of 25 mM N-(2-Hydroxyethyl)Piperazine-N′-(2-Ethane Sulfonic acid) (HEPES), pH7.5, 20% glycerol, 500 mM Sodium Chloride (NaCl), 0.5% Triton-X100, 1 ug/ml lysozyme, 5 mM Magnesium Chloride (MgCl2), lug/ml Dnasel, 5 mM β-Mercaptoethanol (βME), Protease inhibitor—Ethylenediamine Tetraacetic acid (EDTA) free (Roche), homogenized and incubated for 20 mins at 4° C. The homogenate was sonicated and clarified by ultra-centrifugation at 235000 g for 1 hr at 4° C. Imidazole was added to the supernatant to a final concentration of 15 mM and the pH adjusted to 8.0. The crude protein extract was loaded on a Nickel-Nitrilotriacetic acid (Ni-NTA) column pre-equilibrated with buffer B (25 mM HEPES, pH 8.0, 20% glycerol, 500 mM NaCl, 0.5% Triton-X100, 15 mM imidazole, 5 mM βME). The sample was loaded at a flow rate of 1 mL/min. The column was washed with 15 column volumes of buffer C (same as buffer B except with 0.2% Triton-X100). The protein was eluted with 5 column volumes of buffer D (same as buffer C except with 200 mM Imidazole). […]

[3] = read-out: IC50 range, HCV NS3/4A protease enzyme assay
[4] = HCV NS3/4A protease enzyme assay, read-out: IC50 range

Structure (SMILES): C=CC1C[C@]1(NC(=O)[C@@H]1C[C@@H](OC(=O)N(C)C)CN1C(=O)[C@@H](NC(=O)OC(C)(C)C)C(C)(C)C)C(=O)NS(=O)(=O)C1CC1 (stereo partly drawn) [Compound 43, BocNH-P3(t-BuGly)-P2(Hyp(O—CO(N,N-dimethyl)))-P1(1R,2S VinylAcca)—CONHSO2Cyclopropane]
- EC50 [1]: > 10 µM
- IC50 [2, 3]: 0.1 to 1 µM

Structure (SMILES): C=CC1C[C@]1(NC(=O)[C@@H]1C[C@@H](OC(=O)Nc2cccc(C(=O)OC)c2)CN1C(=O)[C@@H](NC(=O)OC(C)(C)C)C(C)(C)C)C(=O)NS(=O)(=O)C1CC1 (stereo partly drawn) [Compound 40, BocNH-P3(t-BuGly)-P2(Hyp(O—CO(NH—(3-benzoic acid methyl ester))))-P1(1R,2S VinylAcca)—CONHSO2Cyclopropane]
- EC50 [1]: 1 to 10 µM
- IC50 [2, 4]: < 0.1 µM

Structure (SMILES): C=CC1C[C@]1(NC(=O)[C@@H]1C[C@@H](OC(=O)Nc2cscc2C(=O)OC)CN1C(=O)[C@@H](NC(=O)OC(C)(C)C)C(C)(C)C)C(=O)NS(=O)(=O)C1CC1 (stereo partly drawn) [Compound 71, BocNH-P3(t-BuGly)-P2(Hyp(O—CO(NH-4-(thiophene-3-carboxylic acid methyl ester))))-P1(1R,2S VinylAcca)—CONHSO2Cyclopropane]
- EC50 [1]: 0.1 to 1 µM
- IC50 [2, 4]: < 0.1 µM

Structure (SMILES): C=CC1C[C@]1(NC(=O)[C@@H]1C[C@@H](OC(=O)Nc2cc(C(=O)OCC)ccc2N2CCCCC2)CN1C(=O)[C@@H](NC(=O)OC(C)(C)C)C(C)(C)C)C(=O)NS(=O)(=O)C1CC1 (stereo partly drawn) [Compound 91, BocNH-P3(t-BuGly)-P2(Hyp(O—CO(NH—(5-carboxyethyl-2-piperidin-1-ylphenyl))))-P1(1R,2S VinylAcca)—CONHSO2Cyclopropane]
- EC50 [1]: 0.1 to 1 µM
- IC50 [2, 4]: < 0.1 µM

Structure (SMILES): C=CC1C[C@]1(NC(=O)[C@@H]1C[C@@H](OC(=O)N2CCc3ccccc32)CN1C(=O)[C@@H](NC(=O)OC(C)(C)C)C(C)(C)C)C(=O)NS(=O)(=O)C1CC1 (stereo partly drawn) [Compound 36, BocNH-P3(t-BuGly)-P2(Hyp(O—CO(N-(1-indolinyl))))-P1(1R,2S VinylAcca)—CONHSO2Cyclopropane]
- EC50 [1]: 0.1 to 1 µM
- IC50 [2, 4]: < 0.1 µM

Structure (SMILES): C=CC1C[C@]1(NC(=O)[C@@H]1C[C@@H](OC(=O)Nc2ccccc2F)CN1C(=O)[C@@H](NC(=O)OC(C)(C)C)C(C)(C)C)C(=O)NS(=O)(=O)C1CC1 (stereo partly drawn) [Compound 51, BocNH-P3(t-BuGly)-P2(Hyp(O—CO(NH—(2-fluoro-phenyl))))-P1(1R,2S VinylAcca)—CONHSO2Cyclopropane]
- EC50 [1]: 1 to 10 µM
- IC50 [2, 4]: 0.1 to 1 µM

Structure (SMILES): C=CC1C[C@]1(NC(=O)[C@@H]1C[C@@H](OC(=O)NCc2ccccc2Cl)CN1C(=O)[C@@H](NC(=O)OC(C)(C)C)C(C)(C)C)C(=O)NS(=O)(=O)C1CC1 (stereo partly drawn) [Compound 26, BocNH-P3(t-BuGly)-P2(Hyp(O—CO(NH—(2-chloro-benzyl))))-P1(1R,2S VinylAcca)—CONHSO2Cyclopropane]
- EC50 [1]: 1 to 10 µM
- IC50 [2, 4]: < 0.1 µM

Structure (SMILES): C=C[C@@H]1C[C@]1(NC(=O)[C@@H]1C[C@@H](OC(=O)N2CCc3ccccc3C2)CN1C(=O)[C@@H](NCC1CC1)C(C)(C)C)C(=O)NS(=O)(=O)C1CC1 [Compound 101]
- EC50 [1]: 1 to 10 µM
- IC50 [2, 4]: < 0.1 µM

Structure (SMILES): C=CC1C[C@]1(NC(=O)[C@@H]1C[C@@H](OC(=O)NCCc2ccccc2)CN1C(=O)[C@@H](NC(=O)OC(C)(C)C)C(C)(C)C)C(=O)NS(=O)(=O)C1CC1 (stereo partly drawn) [Compound 7, BocNH-P3(t-BuGly)-P2(Hyp(O—CO(NH-phenethyl)))-P1(1R,2S VinylAcca)—CONHSO2Cyclopropane]
- EC50 [1]: 1 to 10 µM
- IC50 [2, 3]: 0.1 to 1 µM

Structure (SMILES): C=CC1C[C@]1(NC(=O)[C@@H]1C[C@@H](OC(=O)n2c3ccccc3c3ccccc32)CN1C(=O)[C@@H](NC(=O)OC(C)(C)C)C(C)(C)C)C(=O)NS(=O)(=O)C1CC1 (stereo partly drawn) [Compound 32, BocNH-P3(t-BuGly)-P2(Hyp(O—CO(N-(9-carbazolyl))))-P1(1R,2S VinylAcca)—CONHSO2Cyclopropane]
- EC50 [1]: < 0.1 µM
- IC50 [2, 4]: < 0.1 µM

Structure (SMILES): C=CC1C[C@]1(NC(=O)[C@@H]1C[C@@H](OC(=O)N(CC)CC)CN1C(=O)[C@@H](NC(=O)OC(C)(C)C)C(C)(C)C)C(=O)NS(=O)(=O)C1CC1 (stereo partly drawn) [Compound 44, BocNH-P3(t-BuGly)-P2(Hyp(O—CO(N,N-diethyl)))-P1(1R,2S VinylAcca)—CONHSO2Cyclopropane]
- EC50 [1]: 1 to 10 µM
- IC50 [2, 3]: < 0.1 µM
